For one data set, the system named is H1N1 virus. Description: microbe, parasite or virus in culture. It counts as cell-based. Particulars: for MIC: Influenza A virus, read-out: MIC (minimum inhibitory concentration, cell survival rate >75%); for anti-H1N1 / anti-influenza activity (in words) / SI (selective index=CC50/MIC): H1N1 in MDCK cells.
The next data set in a line: in vitro. As to conditions: dog.
A further data set has as its system H5N1. Particulars: read-out: EC50 (50% effective concentration); H5N1, according to previous studies; cited from earlier work.
Where [1] appears, read: H1N1 at 0.01 MOI in MDCK cells, 48 h, MTT.

In brackets after ≈: the same amount, converted by molar mass. Entries after “also recorded” stand apart in the source; their conditions may differ. Like-named read-outs stand apart in the source and are kept apart here.

The values that follow come from US20120101157A1, “4,5-Diamino-3-Halo-2-Hydroxybenzoic Acid Derivatives and Preparations Thereof” (NATIONAL DEFENSE MEDICAL CENTER, priority 2010, published 2012).

Turning to `Nc1ccc(C(=O)O)c(O)c1` [PAS, p-aminosalicylic acid, reference compound], the MIC with H1N1 virus (H1N1, 48 h) was greater than 100 µg/mL. In the data set “in vitro”, this molecule gave a CC50 greater than 100 µg/mL.

For the molecule `NC(=O)c1ncn([C@@H]2O[C@H](CO)[C@@H](O)[C@H]2O)n1` [Ribavirin, reference compound], the MIC in the data set on H1N1 virus (H1N1, 48 h) worked out at 1.56 µg/mL (≈ 6.39 µM). The EC50 with H5N1 is 6 to 22 µM.

Consider `CC(=O)Nc1cc(O)c(C(=O)O)cc1N` [compound 6a], for which the melting point is 295 to 297 °C. Besides, the “anti-H1N1 / anti-influenza activity (in words)” value in the data set with H1N1 virus was “better anti-H1N1 activity; also recorded: effectively inhibit influenza viral activity”. The MIC in the data set on H1N1 virus (setting [1]) came to 50 µg/mL (≈ 238 µM). Besides, the CC50 in the data set “in vitro” was greater than 100 µg/mL.

As for `COC(=O)c1cc(N)c(NC(C)=O)cc1O` [compound 6b], the melting point fell in the range of 204 to 206 °C. The “anti-H1N1 / anti-influenza activity (in words)” value in the data set on H1N1 virus was “better anti-H1N1 activity; also recorded: effectively inhibit influenza viral activity; also recorded: preferred anti-influenza activity”. Further, the MIC with H1N1 virus (setting [1]) was found to be 1.56 µg/mL (≈ 6.96 µM). In addition, the CC50 in the data set “in vitro” is greater than 100 µg/mL.

Turning to `CCCC(=O)Nc1cc(O)c(C(=O)OCC)cc1N` [compound 6e], the melting point fell in the range of 135 to 137 °C. Also, in the data set on H1N1 virus, the “SI (selective index=CC50/MIC)” value is listed as greater than 64 and the “anti-H1N1 / anti-influenza activity (in words)” value is “better anti-H1N1 activity; also recorded: effectively inhibit influenza viral activity; also recorded: preferred anti-influenza activity”. The MIC in the data set on H1N1 virus (setting [1]) was 1.56 µg/mL (≈ 5.86 µM). Moreover, in “in vitro”, the CC50 is greater than 100 µg/mL.

`COC(=O)c1cc(N)c(NC(C)=O)c(Br)c1O` [compound 6f, methyl 4-(acetamido)-5-amino-3-bromo-2-hydroxybenzoate] displayed a melting point of 217 to 219 °C. For the same molecule, in the data set with H1N1 virus, the “SI (selective index=CC50/MIC)” value is recorded as greater than 128 and the “anti-H1N1 / anti-influenza activity (in words)” value is recorded as “better anti-H1N1 activity; also recorded: effectively inhibit influenza viral activity; also recorded: preferred anti-influenza activity”. Moreover, the MIC with H1N1 virus (setting [1]) was found to be 0.78 µg/mL (≈ 2.57 µM). The molecule also had a CC50 in the data set “in vitro” greater than 100 µg/mL.

With `CC(=O)Nc1cc(O)c(C(=O)O)cc1NC(=N)N` [compound 7a, 4-(acetamido)-5-guanidino-2-hydroxybenzoic acid], the melting point fell in the range of 334 to 357 °C. For the same molecule, the “anti-H1N1 / anti-influenza activity (in words)” value in the data set with H1N1 virus is “better anti-H1N1 activity; also recorded: effectively inhibit influenza viral activity”. Also, the MIC with H1N1 virus (setting [1]) was determined as 25 µg/mL (≈ 99.1 µM). Also, the CC50 in “in vitro” was greater than 100 µg/mL.

`COC(=O)c1cc(NC(=N)N)c(NC(C)=O)cc1O` [compound 7b, methyl 4-(acetamido)-5-guanidino-2-hydroxybenzoate] came in with a melting point of 233 to 234 °C. The “anti-H1N1 / anti-influenza activity (in words)” value with H1N1 virus is listed as “better anti-H1N1 activity; also recorded: effectively inhibit influenza viral activity”. Also, the MIC in the data set with H1N1 virus (setting [1]) worked out at 25 µg/mL (≈ 93.9 µM). Moreover, the CC50 in the data set “in vitro” is greater than 100 µg/mL.

With `CCCC(=O)Nc1cc(O)c(C(=O)OCC)cc1NC(=N)N` [compound 7e, ethyl 4-(butyramido)-5-guanidino-2-hydroxybenzoate], the “anti-H1N1 / anti-influenza activity (in words)” value with H1N1 virus is “no inhibiting activity”. The MIC with H1N1 virus (setting [1]) was greater than 100 µg/mL. In the data set “in vitro”, the CC50 was greater than 100 µg/mL.

In turn, `COC(=O)c1cc(NC(=N)N)c(NC(C)=O)c(Br)c1O` [compound 7f, methyl 4-(acetamido)-3-bromo-5-guanidino-2-hydroxybenzoate] showed a melting point of 238 to 240 °C. In the data set with H1N1 virus, the “anti-H1N1 / anti-influenza activity (in words)” value is on record as “no inhibiting activity”. The MIC in the data set on H1N1 virus (setting [1]) was greater than 100 µg/mL. In “in vitro”, this molecule showed a CC50 greater than 100 µg/mL.

Regarding `CC(=O)Nc1c(N)cc(C(=O)O)c(O)c1Br` [compound 8, 4-(acetamido)-5-amino-3-bromo-2-hydroxybenzoic acid], the melting point was in the range of 210 to 211 °C. Further, the “anti-H1N1 / anti-influenza activity (in words)” value in the data set on H1N1 virus was “better anti-H1N1 activity; also recorded: effectively inhibit influenza viral activity; also recorded: preferred anti-influenza activity”. Also, the MIC in the data set on H1N1 virus (setting [1]) is 1.56 µg/mL (≈ 5.4 µM). The molecule also yielded a CC50 in “in vitro” greater than 100 µg/mL.

One may read the melting point as the temperature of the solid-liquid transition.
